Data published in patent US9296787B2, “Antitumor peptide and use thereof” (priority 2011, dated 2016).
Like-named read-outs stand apart in the source and are kept apart here. Positions of bridges follow the written chain, without caps; N, C: chain ends. Residues, ends and D or L forms follow the SMILES beside them. No end group written: not given here.

Columns and labels:
Type in all cases: cell-based
[1] = system: human alveolar basal epithelial adenocarcinoma cells, A549; conditions: for A450(-A620) After 24 hers: A549, peptide 50 μM, WST-8 absorbance after 24 hours; for antitumor activity (tumor cell proliferation-inhibiting activity), in words: A549, 50 μM, 24 hours, summary of Table 5
Procedure: (§1) As the tumor cells tested, a commercial mouse neuroblastoma cell line (N1E-115) was used. The cell line was cultured beforehand in a DMEM medium (i.e. Dulbecco MEM medium (DMEM medium, a Gibco product) containing 10% fetal bovine serum (FBS, a Gibco product), 2 mM of L-glutamine, 50 unit/mL of penicillin, and 50 μg/mL of streptomycin), and the number of cells per well in a 96-well plate was adjusted to approximately 5×10^3. The volume of the medium for this was 100 μL per well.
(§2) Subsequently, the stock solution of each sample peptide shown in Table 3 was added to each well to a peptide concentration in the well of 50 μM or 100 μM.
(§3) After the sample peptides were added as described above, the 96-well plate was placed in a CO2 incubator and cultured without agitation at 37° C. under 5% CO2. At the time of the peptide addition (at the start of treatment) and at 6 hours or 24 hours from the peptide addition and the start of incubation, the viability status of the cultured cells tested was analyzed with a commercial colorimetric assay kit. In particular, to each cell-culturing well, “water-soluble tetrazolium salt (WST-8)” was added as a colorimetric reagent; after two hours of incubation following the addition, the cell culture medium supplied with the colorimetric reagent was collected; and the level of inhibition of cell proliferation was evaluated by colorimetry, measuring the absorbance at a wavelength of 450 nm (values corrected with the absorbance at a wavelength of 620 nm, A450-A620) based on reduction of tetrazolium salt. Based on the absorbance at the time of the sample peptide addition (at the start of treatment), the percent decrease in the absorbance after 6 hours or 24 hours was determined as the cell proliferation inhibition rate (%).
Cells forming a […] (human alveolar basal epithelial adenocarcinoma cells, A549) were substituted for the tumor cells tested and the same test as Example 2 described above was carried out. In the present example, the peptides of Samples 1 to 13, 15 to 22, 24, 29, 35 and 40 were used.

[2] = system: HeLa cells (HeLa S3); conditions: WST-8 absorbance after 24 hours
Procedure: as §1, §2, §3
HeLa cells (HeLa S3) were substituted for the tumor cells tested and the same test as Example 2 described above was carried out. In the present example, the peptides of Samples 1 to 7, 9, 10, 13, 16, 21 and 35 were used.

[3] = system: HeLa cells; test: Multipolar spindle formation, DAPI and anti-tubulin immunofluorescence microscopy; conditions: after 24 hours
Procedure: In addition, the cultured cells supplemented with the peptides were observed under fluorescence microscope. Herein, as for some examples, the observations on Samples 1, 9, 13, 16, 21 and 35 are outlined. In particular, each peptide was added to a peptide concentration in a well of 50 μM (Samples 1, 9) or 100 μM (Samples 13, 16, 21, 35). After 24 hours, the cultured cells were subjected to nuclear staining with DAPI (4′,6-diamidino-2-phenylindole) and observed under fluorescence microscope. As a marker for spindles, α-tubulin was used; and the cells were tested for the presence of tubulin (i.e. the presence of spindles) by immunofluorescence, using a fluorescence-labeled anti-tubulin antibody to identify the tubulin. FIGS. 1 to 6 show merged images of DAPI-stained images and fluorescence images showing the results of the immunofluorescence assays using the fluorescence-labeled anti-tubulin antibody.

[4] = system: mouse neuroblastoma cell line (N1E-115); conditions: for A450(-A620) After 24 hers: WST-8 absorbance after 24 hours; for A450(-A620) After 6 hers: WST-8 absorbance after 6 hours
Procedure: Some of the sample peptides obtained in Example 1 were tested for antitumor activity against target cultured tumor cells. Details of the assay are as described below.
as §1, §2, §3

Molecule: CC(C)C[C@@H]1NC(=O)[C@H](CO)NC(=O)[C@@H]2CCCN2C(=O)[C@@H]2CCCN2C(=O)[C@H](CCCNC(=N)N)NC(=O)[C@@H]2CCCN2C(=O)[C@@H](N)CSSC[C@@H](C(=O)O)NC(=O)[C@H](CCC(=O)O)NC1=O [Sample 9, CPRPPSLEC] (H-CPRPPSLEC-OH; disulfide 1-9; N-terminus and C-terminus assumed)
- A450(-A620) After 24 hers [1]: 1.8645
- A450(-A620) After 24 hers ([2]; HeLa S3, peptide 50 μM): 0.1366
- A450(-A620) After 24 hers ([2]; HeLa S3, peptide 100 μM): 0.0892
- formation of multipolar spindles (presence of many multipolar cells) ([3]; peptide 50 μM): formation of multipolar spindles

Molecule: GPHHYWYHLRLP [Sample 16, GPHHYWYHLRLP]
- A450(-A620) After 24 hers [1]: 1.7309
- A450(-A620) After 24 hers ([4]; N1E-115, peptide 50 μM): 0.6912
- A450(-A620) After 24 hers ([4]; N1E-115, peptide 100 μM): 0.6048
- formation of multipolar spindles (presence of many multipolar cells) ([3]; peptide 100 μM): formation of multipolar spindles

Molecule: C[C@@H]1NC(=O)[C@H](CO)NC(=O)[C@H](CO)NC(=O)[C@@H](N)CSSC[C@@H](C(=O)O)NC(=O)[C@H](CO)NC(=O)[C@H](CCCCN)NC(=O)CNC(=O)[C@H]([C@@H](C)O)NC1=O [Sample 1, CSSATGKSC] (H-CSSATGKSC-OH; disulfide 1-9; N-terminus and C-terminus assumed)
- antitumor activity (tumor cell proliferation-inhibiting activity), in words [1]: high antitumor activity
- A450(-A620) After 24 hers [1]: 1.5487
- A450(-A620) After 24 hers ([2]; HeLa S3, peptide 50 μM): 0.1028
- A450(-A620) After 24 hers ([2]; HeLa S3, peptide 100 μM): 0.0891
- antitumor activity (tumor cell proliferation-inhibiting activity), in words ([4]; N1E-115, 50 or 100 μM, summary of Table 3): high antitumor activity
- A450(-A620) After 6 hers ([4]; N1E-115, peptide 50 μM): 0.1361
- A450(-A620) After 24 hers ([4]; N1E-115, peptide 50 μM): 0.1578
- A450(-A620) After 6 hers ([4]; N1E-115, peptide 100 μM): 0.1104
- A450(-A620) After 24 hers ([4]; N1E-115, peptide 100 μM): 0.1119
- formation of multipolar spindles (presence of many multipolar cells) ([3]; peptide 50 μM): formation of multipolar spindles

Molecule: CC(C)C[C@@H]1NC(=O)[C@H]([C@@H](C)O)NC(=O)[C@@H](N)CSSC[C@@H](C(=O)O)NC(=O)[C@H](CC(N)=O)NC(=O)[C@H](CO)NC(=O)[C@H](Cc2c[nH]cn2)NC(=O)[C@H](CO)NC(=O)[C@H](CC(N)=O)NC1=O [Sample 6, CTLNSHSNC] (H-CTLNSHSNC-OH; disulfide 1-9; N-terminus and C-terminus assumed)
- antitumor activity (tumor cell proliferation-inhibiting activity), in words [1]: high antitumor activity
- A450(-A620) After 24 hers [1]: 1.4667
- A450(-A620) After 24 hers ([2]; HeLa S3, peptide 50 μM): 0.1174
- A450(-A620) After 24 hers ([2]; HeLa S3, peptide 100 μM): 0.0906
- A450(-A620) After 6 hers ([4]; N1E-115, peptide 50 μM): 0.1633
- A450(-A620) After 24 hers ([4]; N1E-115, peptide 50 μM): 0.3083
- A450(-A620) After 6 hers ([4]; N1E-115, peptide 100 μM): 0.1345
- A450(-A620) After 24 hers ([4]; N1E-115, peptide 100 μM): 0.2830

Molecule: CC(C)C[C@@H]1NC(=O)[C@@H](N)CSSC[C@@H](C(=O)O)NC(=O)[C@H](CCCCN)NC(=O)[C@H](CO)NC(=O)[C@@H]2CCCN2C(=O)[C@H](CO)NC(=O)[C@@H]2CCCN2C(=O)[C@H](C)NC1=O [Sample 2, CLAPSPSKC] (H-CLAPSPSKC-OH; disulfide 1-9; N-terminus and C-terminus assumed)
- A450(-A620) After 24 hers [1]: 1.8971
- A450(-A620) After 24 hers ([2]; HeLa S3, peptide 50 μM): 0.0924
- A450(-A620) After 24 hers ([2]; HeLa S3, peptide 100 μM): 0.0739
- A450(-A620) After 6 hers ([4]; N1E-115, peptide 50 μM): 0.2235
- A450(-A620) After 24 hers ([4]; N1E-115, peptide 50 μM): 0.3926
- A450(-A620) After 6 hers ([4]; N1E-115, peptide 100 μM): 0.2094
- A450(-A620) After 24 hers ([4]; N1E-115, peptide 100 μM): 0.3764

Molecule: N=C(N)NCCC[C@@H]1NC(=O)[C@H](Cc2c[nH]cn2)NC(=O)CNC(=O)[C@@H](N)CSSC[C@@H](C(=O)O)NC(=O)[C@H](Cc2ccc(O)cc2)NC(=O)[C@H](CCC(N)=O)NC(=O)[C@H](Cc2ccc(O)cc2)NC(=O)[C@@H]2CCCN2C1=O [Sample 4, CGHRPYQYC] (H-CGHRPYQYC-OH; disulfide 1-9; N-terminus and C-terminus assumed)
- A450(-A620) After 24 hers [1]: 1.7663
- A450(-A620) After 24 hers ([2]; HeLa S3, peptide 50 μM): 0.0955
- A450(-A620) After 24 hers ([2]; HeLa S3, peptide 100 μM): 0.0937

Molecule: SVSVGMKPSPRP [Sample 13, SVSVGMKPSPRP]
- A450(-A620) After 24 hers [1]: 1.9412
- A450(-A620) After 24 hers ([4]; N1E-115, peptide 50 μM): 0.5681
- A450(-A620) After 24 hers ([4]; N1E-115, peptide 100 μM): 0.6422
- formation of multipolar spindles (presence of many multipolar cells) ([3]; peptide 100 μM): formation of multipolar spindles

Molecule: GPHLGMNQRRRP [Sample 21, GPHLGMNQRRRP]
- antitumor activity (tumor cell proliferation-inhibiting activity), in words [1]: high antitumor activity
- A450(-A620) After 24 hers [1]: 1.5672
- A450(-A620) After 24 hers ([4]; N1E-115, peptide 50 μM): 0.5284
- A450(-A620) After 24 hers ([4]; N1E-115, peptide 100 μM): 0.5810
- formation of multipolar spindles (presence of many multipolar cells) ([3]; peptide 100 μM): formation of multipolar spindles

Molecule: SVSVGMKPSPRPKKRTLRKNDRKKR [Sample 35]
- antitumor activity (tumor cell proliferation-inhibiting activity), in words [1]: high antitumor activity
- A450(-A620) After 24 hers [1]: 1.7451
- formation of multipolar spindles (presence of many multipolar cells) ([3]; peptide 100 μM): formation of multipolar spindles

Molecule: CSCC[C@@H]1NC(=O)[C@H](CCCCN)NC(=O)[C@H]([C@@H](C)O)NC(=O)[C@H](CCC(N)=O)NC(=O)CNC(=O)[C@H](CC(C)C)NC(=O)[C@@H](N)CSSC[C@@H](C(=O)O)NC(=O)[C@H](CCCNC(=N)N)NC1=O [Sample 3, CLGQTKMRC] (H-CLGQTKMRC-OH; disulfide 1-9; N-terminus and C-terminus assumed)
- antitumor activity (tumor cell proliferation-inhibiting activity), in words [1]: high antitumor activity
- A450(-A620) After 24 hers [1]: 1.7022
- A450(-A620) After 24 hers ([2]; HeLa S3, peptide 50 μM): 0.1194
- A450(-A620) After 24 hers ([2]; HeLa S3, peptide 100 μM): 0.0997
